# Laboratory results from patent publication US8445542B2, “Methods of accelerating muscle growth, decreasing fat deposits and improving feed efficiency in livestock animals” (Bridge Pharma, Inc., priority 2006, dated 2013).
# Tests used:
# livestock animals = conditions: Marchant-Forde et al., cited from earlier work; for tachycardia in livestock animals: 2003 and London et al. 2005
# laboratory animals = test: Neuropharmacological profile (Irwin test), repeated oral administration
# [1] = target: adrenergic beta-3 receptors (Homo sapiens, UniProt P13945); test: Receptor binding, beta-3 (present studies)
# adrenergic beta-3 receptors, sequence (P13945 whole entry): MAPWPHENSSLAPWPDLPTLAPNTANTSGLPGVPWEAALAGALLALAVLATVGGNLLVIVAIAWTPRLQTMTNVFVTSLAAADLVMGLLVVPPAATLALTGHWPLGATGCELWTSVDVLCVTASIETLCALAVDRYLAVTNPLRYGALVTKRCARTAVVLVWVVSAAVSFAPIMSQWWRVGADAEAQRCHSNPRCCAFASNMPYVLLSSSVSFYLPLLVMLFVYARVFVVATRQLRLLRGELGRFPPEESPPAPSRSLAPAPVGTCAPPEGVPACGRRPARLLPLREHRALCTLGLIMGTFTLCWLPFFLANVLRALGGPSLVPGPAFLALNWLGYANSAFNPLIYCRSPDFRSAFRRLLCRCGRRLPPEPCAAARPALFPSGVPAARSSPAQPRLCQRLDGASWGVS
# beta-3 receptors = beta-3 receptors (Homo sapiens, UniProt P13945); conditions: background statement; cited from earlier work
# beta-3 receptors, sequence (P13945 whole entry): as above
# [2] = test system: adrenergic alpha-receptors; conditions: isolated smooth and cardiac muscle tissues of rat and guinea pig; Colbert et al. 1991; cited from earlier work
# [3] = test system: adrenergic beta-receptors in adipose tissue; conditions: animals exposed to the drug; Spurlock et al. 1994; cited from earlier work
# mice [4] = test: Stress testing in mice, methodology of Aberg (U.S. Pat. No. 6,372,799)
# [5] = target: adrenergic beta-1 receptors (Homo sapiens, UniProt P08588); test: Receptor binding studies, beta-1
# adrenergic beta-1 receptors, sequence (P08588 whole entry): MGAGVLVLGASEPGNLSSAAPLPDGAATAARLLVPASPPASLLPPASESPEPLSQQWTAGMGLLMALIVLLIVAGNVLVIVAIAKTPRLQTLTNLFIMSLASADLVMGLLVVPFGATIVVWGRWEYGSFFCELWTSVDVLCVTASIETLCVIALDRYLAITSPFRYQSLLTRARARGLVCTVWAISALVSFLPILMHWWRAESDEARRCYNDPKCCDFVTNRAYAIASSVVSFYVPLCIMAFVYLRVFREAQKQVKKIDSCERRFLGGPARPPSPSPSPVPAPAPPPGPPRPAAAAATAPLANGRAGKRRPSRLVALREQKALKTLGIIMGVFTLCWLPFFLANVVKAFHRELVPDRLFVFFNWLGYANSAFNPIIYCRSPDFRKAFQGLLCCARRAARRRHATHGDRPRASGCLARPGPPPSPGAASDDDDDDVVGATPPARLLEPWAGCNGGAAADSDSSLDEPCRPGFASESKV
# Description: Interesting and important advantages of receptor selectivity by RR-ractopamine were found.
# [6] = target: porcine adrenergic β-2 receptors (Sus scrofa, UniProt Q28997); conditions: Mills et al., 2003; cited from earlier work
# porcine adrenergic β-2 receptors, sequence (Q28997 whole entry): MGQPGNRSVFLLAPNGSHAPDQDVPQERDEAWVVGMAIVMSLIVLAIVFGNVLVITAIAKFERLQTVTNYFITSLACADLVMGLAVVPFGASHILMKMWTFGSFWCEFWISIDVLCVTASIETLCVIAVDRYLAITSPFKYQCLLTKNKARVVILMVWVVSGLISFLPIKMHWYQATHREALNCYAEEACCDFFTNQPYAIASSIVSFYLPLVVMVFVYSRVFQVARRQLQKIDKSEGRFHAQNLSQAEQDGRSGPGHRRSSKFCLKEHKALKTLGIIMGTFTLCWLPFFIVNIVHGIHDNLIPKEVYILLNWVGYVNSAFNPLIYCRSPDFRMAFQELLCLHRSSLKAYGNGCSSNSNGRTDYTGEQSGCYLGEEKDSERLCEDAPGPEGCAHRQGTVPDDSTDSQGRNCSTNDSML
# mice [7] = test: Spontaneous motor activity in mice (part of Irwin tests); assay type: in vivo; conditions: oral
# adrenergic beta-receptor = test: Adrenergic beta-receptor stimulating activity of the isomers; conditions: compared with RR-ractopamine; this document and Shappell et al, 2000
# Description: J. Anim. Sci. 2000, 78: 699-708, which publication is hereby included in its entirety by reference.)
# [8] = test system: Airway smooth muscle tissues; test: Airway smooth muscle contracted by carbachol; conditions: ongoing studies
# Description: Airway smooth muscle tissues were contracted by carbachol. The inhibitory effects of isomers, enantiomeric pairs and a racemic mixture of ractopamine are being investigated.
# Test results from these functional studies verify and support the results from the receptor binding studies.
compound,measurement,setting,value
CC(C)(C)NC[C@H](O)c1ccc(O)c(CO)c1 [R-salbutamol],tachycardia in livestock animals,livestock animals,not causing tachycardia
same,stress in Irwin test,laboratory animals; repeated oral administration,no stress
"CC(CCc1ccc(O)cc1)NCC(O)c1ccc(O)cc1.Cl (racemic) [racemic ractopamine, 4-hydroxy-a-[[[3-(4-hydroxyphenyl)-1-methylpropyl]amino]methyl]benzenemethanol hydrochloride]",affinity for adrenergic beta-3 receptors,[1],neither racemic ractopamine nor any of the ractopamine isomers had affinity
same,affinity for beta-3 receptors,beta-3 receptors,negligible affinity
same,effect on adrenergic alpha-receptors,[2],no significant effect
same,reduction of the concentration of adrenergic beta-receptors in adipose tissue,[3],50%
same,CNS-mediated stress in livestock animals,livestock animals; 2003,cause CNS-mediated stress
same,tachycardia in livestock animals,livestock animals,significant tachycardia
same,CNS-mediated stress,"mice [4]; mice, ongoing testing",demonstrate CNS-mediated stress
same,stress in Irwin test,laboratory animals; repeated oral administration,produced increased stress
RR-4-hydroxy-a-[[[3-(4-hydroxyphenyl)-1-methylpropyl]amino]methyl]benzenemethanol [RR-ractopamine],affinity for adrenergic beta-1 receptors compared with the racemic mixture of all four isomers,[5],higher affinity
same,binding affinity relative to the racemic mixture of all four isomers,[6],about 2.5 times
same,optical stability,Optical stability,optically stable
same,CNS-mediated stress,"mice [4]; mouse, in vivo",not causing stress
same,stress in Irwin test,"laboratory animals; mouse, in vivo, po",did not cause stress
same,effect on spontaneous motor activity,mice [7],no statistically significant effects
CC(CCc1ccc(O)cc1)NCC(O)c1ccc(O)cc1 (centres unmarked) [RS],adrenergic beta-receptor stimulating activity,adrenergic beta-receptor,reduced beta-receptor activity
CC(C)(C)NCC(O)c1ccc(O)c(CO)c1 (centres unmarked) [salbutamol],affinity for beta-3 receptors,beta-3 receptors,negligible affinity
C[C@@H](CCc1ccc(O)cc1)NC[C@@H](O)c1ccc(O)cc1 (racemic) [SS-ractopamine],airway smooth muscle relaxing activity,[8],very weak activity
same,adrenergic beta-receptor stimulating activity,adrenergic beta-receptor,completely devoid of adrenergic beta-receptor stimulating activity
